# Test results as given in patent US20060205597A1, “Weed-controlling mulching composition” (priority 2002, published 2006).
# Test system: Rumex obtusifolius, Trifolium repens, and Artemisia indica var. maximowiczii
# Test: Field test on bottom weed of an apple orchard
# Format: in vivo
# Details: after 3 months
# Description: On May 21, 5.0 liters per square meter (m^2) of a slurry obtained by mixing 15% of nonstoichiometric magnesia carbonate cement with 100 fold diluted solution of glyphosate was applied to the bottom weed of an apple orchard in Hirosaki city of Aomori prefecture. The kinds of the bottom weed included Rumex obtusifolius, Trifolium repens, and Artemisia indica var. maximowiczii and these grew to a height of 150 mm. As comparative sections, a glyphosate alone section and a no-glyphosate section were provided and after 3 months the state of growth of weeds was observed. […] From the viewpoint of the thickness of the weed, mixed application of the herbicide and the nonstoichiometric magnesia carbonate cement was very effective and the mixed treatment section inhibited the growth of the weeds until October.
smiles,measurement,setting,value
O=C(O)CNCP(=O)(O)O [glyphosate],state of growth of weeds,5.0 liters per square meter applied May 21,again grew
same,height of regrown weed (spindly growth),,230 mm
